Reference: patent US9109001B2, “3′,5′-cyclic phosphoramidate prodrugs for HCV infection” (priority 2012, dated 2015)
Read-outs that look alike come from different tables or passages of the source.

Assays:
[1] = Stability in human intestinal S9 (HIS9); assay type: in vitro ADME; conditions: 10 μM, 1.0 mg/mL protein, NADPH, 60 min; percent unchanged
Method: (§1) Stability in Liver and Intestinal Subcellular Fractions: Stability of test compounds were determined in subcellular fractions (microsomes and S9) of human liver and intestine in duplicate for each matrix. Pooled liver and intestinal microsomal, intestinal and liver S9 proteins (1.0 mg/mL), suspended in incubation buffer (100 mM potassium phosphate, pH 7.4, 5 mM MgCl2, and 0.1 mM EDTA), were preincubated for 5 min at 37° C. with 10 μM of a test compound from a 10 mM stock solution in DMSO (final DMSO concentration was 0.1%); the reaction was initiated by the addition of NADPH (3 mM final concentration). At specific times (0 and 60 min), 0.1 mL samples were taken and the reaction terminated by the addition of 4 volumes of stop solution (acetonitrile with 500 ng/mL carbutamide as an internal standard). The samples were vortexed for 30 sec and then centrifuged at 16,000 g for 10 min. 100 μL of supernatants were transferred to 96 deep-well plates preloaded with 100 μL distilled water and analyzed after mixing by LC-MS/MS. The MS peak area ratio of the test compound versus the internal standard was calculated and percent unchanged test compound over 60 minutes was calculated using this ratio.

[2] = Stability in simulated gastric fluid; assay type: in vitro ADME; conditions: 100 μM, 2 hours at 37° C.; percent of peak area at time zero
Method: Stability in Simulated Gastric and Intestinal Fluids: Simulated gastric and intestinal fluids containing pepsin and pancreatin respectively were prepared according to the U.S. Pharmacopoeia USP291 procedure (www.pharmacopeia.cn/v29240/usp29nf24s0_ris1s126.html). Test compound (final concentration 100 μM) was incubated in duplicate in the appropriate fluid for 2 hours at 37° C. The samples were quenched with 200 μl cold acetonitrile, vortexed for 30 seconds and then centrifuged at 16,100 g for 10 min. The supernatants were analyzed by HPLC on a C-18 column with UV detection at 252 nm. The time 0 samples were prepared by adding SGF or SIF fluid to the quenching solvent followed by the test compound. Stability of the compound was determined by peak area the test compound after incubation and calculated as percent of the peak area observed at time zero.

[3] = Cytotoxicity evaluation (CellTiter-Blue Cell Viability Assay); assay type: cell-based, human; conditions: human, Zluc cells, read-out: HCV Replicon CC50
[4] = Stability in human intestinal microsomes; assay type: in vitro ADME; conditions: 10 μM, 1.0 mg/mL protein, NADPH, 60 min; percent unchanged
Method: as §1

HCV genotype 1b replicon = assay: HCV Replicon Assay; assay type: cell-based; conditions: Zluc (Huh-7-derived) cells, HCV genotype 1b replicon, luciferase reporter, 72 hours, read-out: HCV Replicon EC50
Method: Huh-7-derived cell line (Zluc) that harbors an HCV genotype 1b replicon and a luciferase reporter gene was grown in Dulbecco's Modified Eagle Medium (DMEM) supplemented with 10% fetal bovine serum, 2 mM GlutaMAX, 1% MEM nonessential amino acids, 100 IU/mL penicillin, 100 μg/mL streptomycin, and 0.5 mg/mL Geneticin® (G418). For dose response testing the cells were seeded in 96-well plates at 7.5×10^3 cells per well in a volume of 50 μL, and incubated at 37° C./5% CO2. Drug solutions were made up freshly in Huh-7 media as 2× stocks. Ten additional 5-fold dilutions were prepared from these stocks in DMEM without G418. At least three hours after Zluc cells were seeded, drug treatment was initiated by adding 50 μL of drug dilutions to the plates in duplicate. Final concentrations of drug ranged from 100 μM to […]. Cells were then incubated at 37° C./5% CO2. Alternatively, compounds were tested at two concentrations (1 μM and 10 μM). […] For this, media was removed from the plates via gentle tapping. Fifty microliters of ONE-glo luciferase assay reagent was added to each well. The plates were shaken gently for 3 min at room temperature and luminescence was measured on a Victor^3 V 1420 multilabel counter (Perkin Elmer) with a 1 second read time using a 700 nm cut-off filter. The EC50 values were calculated from dose response curves from the resulting best-fit equations determined by Microsoft Excel and XLfit 4.1 software. When screening at two fixed concentrations, the results were expressed as % inhibition at 1 μM and 10 μM.

[5] = Stability in fresh human whole blood; assay type: in vitro ADME; conditions: 0.5 μM, percent unchanged test compound
Method: Stability in Fresh Whole Blood: Stability of test compounds were determined in fresh human whole blood with K2EDTA as the anticoagulant (stored refrigerated at 2-8° C. and used within 7 days of receipt). The experiment was conducted with three replicates for each time point. Whole blood, pre-incubated at 37° C. for 10-15 minutes, was fortified with a solution of test compound for a final concentration of 0.5 μM and mixed for 30 sec. At intervals (0, 0.5, 1 and 2 hr), three 50-μL aliquots were combined with 200 μL (each) of an ice-cold solution of the internal standard (carbutamide 500 ng/mL in acetonitrile). The samples were vortexed for 30 sec and then centrifuged at 16,100 g for 5 min. The supernatant was analyzed by LC-MS/MS. The MS peak area ratio of the test compound versus the internal standard was calculated and percent unchanged test compound was calculated for each time point using this ratio.

Huh-7 cells = assay: Release of active metabolite in Huh-7 cells; assay type: in vitro ADME, human; conditions: 10 μM test compound
Method: Assay for the Release of Active Metabolite in Huh-7 Cells. Huh-7 cells were plated in 1 mL culture medium (DMEM, containing glucose, L-glutamine and sodium pyruvate, 10% FBS, 100 IU/mL penicillin, 100 μg/mL streptomycin, 2 mM GlutaMAX, 1% MEM non-essential amino acids) at the concentration 0.8, 0.4 and 0.2 million cells per well on 6 well plates for 24, 48 and 72 hr treatment, respectively. Plated cells were incubated overnight at 37° C. in an incubator.
The following morning test compound was diluted to 20 μM from a stock solution in DMSO in fresh culture medium pre-warmed to 37° C. and 1 mL of the solution/well was added to cells. A final medium volume per well was 2.0 mL, test compound concentration in well was 10 μM and final DMSO concentration was 0.1%.
After 24, 48 or 72 hr, the medium was carefully removed and cell monolayers were washed twice with 2 mL ice-cold PBS per well. Following the last wash, all PBS was carefully removed and 1.0 mL of extraction solution (ice-cold 70% methanol) added. The plate was tightly covered with Parafilm, plastic plate cover and Parafilm again and an intracellular content was extracted at −20° C. for 24 hr.
After 24 hr extracts were transferred into polypropylene microfuge tubes and dry on a refrigerated centrivap concentrator. Dry residues were reconstituted in 250 μL of HPLC-grade water and centrifuged at 16,000×g for 10 min. Aliquots (100 μL each) of the supernatants were transferred into a 96 well plate and internal standard (4 ng/mL final concentration) was added as the internal standard (IS) for LC-MS/MS analysis.

Zluc cells = assay: Cytotoxicity evaluation (CellTiter-Blue Cell Viability Assay); assay type: cell-based, human; conditions: read-out: HCV Replicon CC50

| SMILES | Stability HIS9 (1 hr) [1] | Stability SGF [2] | CC50 [3] | Stability HIM (1 hr) [4] | EC50 (HCV genotype 1b replicon; Hepatitis C virus, 72 h) | Stability WB_Human (37° C.; 2 hr) [5] | Huh-7 TP Cmax (pmol/mill cells) (Huh-7 cells) | CC50 (Zluc cells) | EC50 (HCV genotype 1b replicon) |
| --- | --- | --- | --- | --- | --- | --- | --- | --- | --- |
| CCOc1nc(N)nc2c1ncn2[C@@H]1O[C@@H]2COP(=O)(N[C@@H](C)C(=O)OC(C)C)O[C@H]2[C@@]1(C)F (single isomer, unassigned) [Compound 1 Diastereomer 1] | 84% | 87% | > 50 µM | 70% | 250 to 1000 nM | 87% | 283 pmol/mill cells | – | – |
| CCOc1nc(N)nc2c1ncn2[C@@H]1O[C@@H]2COP(=O)(N[C@@H](C)C(=O)OC(C)C)O[C@H]2[C@@]1(C)F (single isomer, unassigned) [Compound 1 Diastereomer 2] | 96% | 83% | – | 98% | – | 67% | – | > 50 µM | < 250 nM |
